Values after ≈ are worked out from the molar mass of the structure shown.
Key:
in vitro = conditions: rat/mouse hybrid
Experimental: To evaluate the anti-apoptotic effect of solubilized UDCA against GSNO on wild type cells and cells containing G93A and A4V mutations in hSOD1, wildtype cells, G93A cells, and A4V cells were incubated with 500 μM GSNO for 24 h in order to induce apoptosis and then cell viability of was determined. These apoptosis-induced wildtype cells, G93A cells, and A4V cells were next incubated with 20 μM of solubilized UDCA for 24 h and cell viability was determined again using both the MTT assay and Trypan blue staining.
Cell culture: VSC 4.1. […]
MTT assay and trypan blue staining to evaluate the anti-apoptotic effects of solubilized UDCA and its results; 3-(4,5-dimethylthiazol-2-yl)-2,5-diphenyltetrazolium bromide (MTT) is absorbed into cells and converted to formazan by the action of mitochondrial succinate dehydrogenase. […] Finally, optical density (OD) was read at 540 nm on the ELISA plate reader after particles in the well were dissolved by a microplate mixer for 10 min. Results were calibrated using OD measured without cell culture. […] Unstained live cells were counted on a haemocytometer. Cell viability was expressed as percentages of the cell survival.

[1] = system: wild type cells (VSC 4.1, wild type human Cu/Zn SOD-1); experiment: DAPI staining to evaluate apoptosis by GSNO; type: cell-based; conditions: 500 μM GSNO, 24 h
Experimental: (§1) DAPI staining to evaluate apoptosis by GSNO and its results; 4′,6-Diamidino-2-phenylindole dihydrochloride (DAPI) staining was performed to evaluate apoptosis as follows. After differentiation, the wildtype (control), G93A, and A4V cells were incubated with without 500 μM GSNO for 24 h; the cells were then centrifuged at 265 g for 2 min, and 4% neutral buffered formalin (100 μL) was added to the cell pellet. A 50 μL aliquot of the cell suspension was applied to a glass slide and dried at room temperature. The fixed cells were washed in PBS, air dried, and stained for 20 min with the DNA-specific fluorochrome, DAPI (Sigma, Saint Louis, Mo., USA). The adhered cells were rinsed with PBS, air dried, and mounted with 90% glycerol. The slides were observed under Olympus fluorescence microscopy(pictures).

[2] = system: A4V cells (VSC 4.1, mutant human Cu/Zn SOD-1); experiment: DAPI staining to evaluate apoptosis by GSNO; type: cell-based; conditions: 500 μM GSNO, 24 h
Experimental: as §1

[3] = system: G93A cells (VSC 4.1, mutant human Cu/Zn SOD-1); experiment: DAPI staining to evaluate apoptosis by GSNO; type: cell-based; conditions: 500 μM GSNO, 24 h
Experimental: as §1

[4] = protonated form; cited from earlier work
[5] = oral administration; cited from earlier work

Compound: N[C@@H](CCC(=O)N[C@@H](CSN=O)C(=O)NCC(=O)O)C(=O)O [GSNO, S-nitrosoglutathione]
- viability at 24 h, 500 μM (in vitro): 81%
- percent of apoptotic cells [1]: 8%
- percent of apoptotic cells [2]: 25%
- percent of apoptotic cells [3]: 19%

Compound: C[C@H](CCC(=O)NCCS(=O)(=O)O)[C@H]1CC[C@H]2[C@@H]3[C@@H](O)C[C@@H]4C[C@H](O)CC[C@]4(C)[C@H]3CC[C@]12C [TUDCA, tauroursodeoxycholic acid]
- solubility [4]: 450 µM (≈ 225 µg/mL)

Compound: C[C@H](CCC(=O)O)[C@H]1CC[C@H]2[C@@H]3[C@@H](O)C[C@@H]4C[C@H](O)CC[C@]4(C)[C@H]3CC[C@]12C [UDCA, Ursodeoxycholic acid]
- fraction of an ingested dose absorbed in the colon [5]: 20%
- solubility [4]: about 0.05 mM
